This note sets out measurements from patent publication US11884661B2, “3-substituted propionic acids as αV integrin inhibitors” (BRISTOL-MYERS SQUIBB COMPANY, priority 2016, dated 2024).

T1 sequence (P06756 31-992 limits assumed): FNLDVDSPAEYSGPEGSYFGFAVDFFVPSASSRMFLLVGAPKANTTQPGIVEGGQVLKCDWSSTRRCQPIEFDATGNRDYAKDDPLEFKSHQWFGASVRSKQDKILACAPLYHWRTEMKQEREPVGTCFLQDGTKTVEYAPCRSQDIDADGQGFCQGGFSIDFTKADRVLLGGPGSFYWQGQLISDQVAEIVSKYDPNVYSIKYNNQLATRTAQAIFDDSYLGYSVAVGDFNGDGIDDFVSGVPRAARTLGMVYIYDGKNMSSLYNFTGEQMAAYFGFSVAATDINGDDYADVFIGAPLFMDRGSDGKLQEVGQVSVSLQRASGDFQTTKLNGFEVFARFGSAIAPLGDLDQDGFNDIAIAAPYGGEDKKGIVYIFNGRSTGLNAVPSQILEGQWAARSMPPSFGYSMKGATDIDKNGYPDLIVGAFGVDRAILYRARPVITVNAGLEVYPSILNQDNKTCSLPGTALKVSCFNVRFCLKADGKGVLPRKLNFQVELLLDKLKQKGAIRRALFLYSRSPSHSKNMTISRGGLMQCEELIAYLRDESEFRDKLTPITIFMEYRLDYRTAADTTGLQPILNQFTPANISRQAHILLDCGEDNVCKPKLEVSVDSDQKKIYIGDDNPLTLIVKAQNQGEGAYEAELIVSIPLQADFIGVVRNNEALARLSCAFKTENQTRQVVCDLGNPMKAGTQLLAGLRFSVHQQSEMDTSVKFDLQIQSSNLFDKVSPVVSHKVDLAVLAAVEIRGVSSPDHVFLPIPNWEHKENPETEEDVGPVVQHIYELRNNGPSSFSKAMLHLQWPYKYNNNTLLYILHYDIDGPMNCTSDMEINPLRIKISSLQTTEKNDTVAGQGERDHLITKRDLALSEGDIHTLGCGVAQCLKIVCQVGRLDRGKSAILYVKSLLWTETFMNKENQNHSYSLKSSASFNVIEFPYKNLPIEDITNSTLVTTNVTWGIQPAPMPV
T1 sequence (P18564 22-707 limits assumed): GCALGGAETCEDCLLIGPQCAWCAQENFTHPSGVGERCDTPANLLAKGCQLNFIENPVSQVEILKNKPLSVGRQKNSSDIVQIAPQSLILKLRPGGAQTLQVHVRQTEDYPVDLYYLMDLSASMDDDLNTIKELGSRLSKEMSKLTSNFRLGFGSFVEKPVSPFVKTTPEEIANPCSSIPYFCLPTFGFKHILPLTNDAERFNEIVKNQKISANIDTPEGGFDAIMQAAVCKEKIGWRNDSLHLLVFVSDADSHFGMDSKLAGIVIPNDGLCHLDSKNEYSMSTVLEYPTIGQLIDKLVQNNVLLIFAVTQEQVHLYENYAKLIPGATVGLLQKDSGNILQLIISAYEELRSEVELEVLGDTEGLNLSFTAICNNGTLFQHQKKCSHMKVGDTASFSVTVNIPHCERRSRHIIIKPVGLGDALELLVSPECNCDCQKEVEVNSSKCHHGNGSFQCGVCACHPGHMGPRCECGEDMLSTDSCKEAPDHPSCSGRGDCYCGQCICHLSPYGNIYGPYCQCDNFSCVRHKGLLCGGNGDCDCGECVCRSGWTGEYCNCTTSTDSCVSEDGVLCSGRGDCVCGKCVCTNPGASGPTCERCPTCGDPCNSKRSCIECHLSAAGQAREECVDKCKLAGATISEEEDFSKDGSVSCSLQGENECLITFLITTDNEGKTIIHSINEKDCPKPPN

The experiment addresses T1, human αVβ6 (Homo sapiens, UniProt P06756+P18564).
T1 construct: purchased R & D systems 3817-AV
Briefly: human αVβ6 HTRF binding assay. The following applies: recombinant human αVβ6 integrin, FITC-conjugated fibronectin. In a few lines: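 Biotinylated recombinant αVβ6 (1.25 nM final) incubated with FITC-fibronectin (5 nM) 1 h at RT, then streptavidin-terbium (0.625 nM) added and incubated overnight at RT in the dark before HTRF read. Buffer: 20 mM Tris pH 7.4, 1 mM MgCl2, 1 mM MnCl2, 0.01% Tween 20, 0.01% BSA.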
Turning to `O=C(O)CC(c1cnc(N2CCC2)nc1)n1ccc(CCCc2ccc3c(n2)NCCC3)n1` (racemic) [Example 50, (±)-3-(2-(Azetidin-1-yl)pyrimidin-5-yl)-3-(3-(3-(5,6,7,8-tetrahydro-1,8-naphthyridin-2-yl)propyl)-1H-pyrazol-1-yl)propanoic acid], the IC50 turned out to be 6.4 nM.
In the case of `COc1ccc(C(CC(=O)O)c2nc(CCCc3ccc4c(n3)NCCC4)co2)cc1F` (stereo not shown) [Example 178, 3-(3-fluoro-4-methoxyphenyl)-3-(4-(3-(5,6,7,8-tetrahydro-1,8-naphthyridin-2-yl)propyl)oxazol-2-yl)propanoic acid] it was 1.4 nM.
The figure for `COc1ncc(C(CC(=O)O)n2ncc(CCCc3ccc4c(n3)NCCC4)n2)cn1` (single isomer, unassigned) [Example 177, 3-(2-methoxypyrimidin-5-yl)-3-(4-(3-(5,6,7,8-tetrahydro-1,8-naphthyridin-2-yl)propyl)-2H-1,2,3-triazol-2-yl)propanoic acid] is 315 nM; for `COc1ccc(C(CC(=O)O)c2cnn(CCCCc3ccc4c(n3)NCCC4)c2)cn1` (racemic) [Example 11, (±)-3-(6-Methoxypyridin-3-yl)-3-(1-(4-(5,6,7,8-tetrahydro-1,8-naphthyridin-2-yl)butyl)-1H-pyrazol-4-yl)propanoic acid] it is 100 nM.
Consider `O=C(NC(Cc1cnn(CCCc2ccc3c(n2)NCCC3)c1)C(=O)O)OCc1ccccc1` (racemic) [Example 6, (±)-2-(((Benzyloxy)carbonyl)amino)-3-(1-(3-(5,6,7,8-tetrahydro-1,8-naphthyridin-2-yl)propyl)-1N-pyrazol-4-yl)propanoic acid], for which the concentration for half-maximal inhibition (IC50) was found to be 80 nM.
In the case of `O=C(O)CC(c1cnc(N2CCC2)nc1)n1nccc1CCCc1ccc2c(n1)NCCC2` (racemic) [Example 53, (±)-3-(2-(Azetidin-1-yl)pyrimidin-5-yl)-3-(5-(3-(5,6,7,8-tetrahydro-1,8-naphthyridin-2-yl)propyl)-1H-pyrazol-1-yl)propanoic acid] it was 140 nM.
The figure for `COc1ccc(C(CC(=O)O)c2cnn(CCCc3ccc4c(n3)NCCC4)c2)cc1F` (racemic) [Example 24, (±)-3-(3-Fluoro-4-methoxyphenyl)-3-(1-(3-(5,6,7,8-tetrahydro-1,8-naphthyridin-2-yl)propyl)-1H-pyrazol-4-yl)propanoic acid] is 117 nM.
Consider `COc1ccc(C(CC(=O)O)n2nccc2CCCc2ccc3c(n2)NCCC3)nn1` (racemic) [Example 58, (±)-3-(6-Methoxypyridazin-3-yl)-3-(5-(3-(5,6,7,8-tetrahydro-1,8-naphthyridin-2-yl)propyl)-1H-pyrazol-1-yl)propanoic acid], for which the half-maximal inhibitory concentration (IC50) stood at 2100 nM.
The figure for `CN(C)C(=O)c1ccc(C(CC(=O)O)c2nc(CCCc3ccc4c(n3)NCCC4)cs2)cc1F` (single isomer, unassigned) [Example 136, 3-(4-(dimethylcarbamoyl)-3-fluorophenyl)-3-(4-(3-(5,6,7,8-tetrahydro-1,8-naphthyridin-2-yl)propyl)thiazol-2-yl)propanoic acid] is 12 nM; for `COc1ccc(C(CC(=O)O)c2nc(CCCc3ccc4c(n3)NCCC4)cs2)cc1OC` (single isomer, unassigned) [Example 142, 3-(3,4-dimethoxyphenyl)-3-(4-(3-(5,6,7,8-tetrahydro-1,8-naphthyridin-2-yl)propyl)thiazol-2-yl)propanoic acid] it is 37 nM.
The figure for `O=C(O)CC(c1cncc(N2CCOCC2)c1)n1nccc1CCCc1ccc2c(n1)NCCC2` (single isomer, unassigned) [Example 94, 3-(5-morpholinopyridin-3-yl)-3-(5-(3-(5,6,7,8-tetrahydro-1,8-naphthyridin-2-yl)propyl)-1H-pyrazol-1-yl)propanoic acid] is 19 nM.
In the case of `COc1ncc(C(CC(=O)O)n2ncc(CCCc3ccc4c(n3)NCCC4)n2)cn1` (single isomer, unassigned) [Example 176, 3-(2-methoxypyrimidin-5-yl)-3-(4-(3-(5,6,7,8-tetrahydro-1,8-naphthyridin-2-yl)propyl)-2H-1,2,3-triazol-2-yl)propanoic acid] it was 43 nM; in that of `CCOc1ncc([C@@H](CC(=O)O)n2ccc(CCCc3ccc4c(n3)NCCC4)n2)cn1` [Example 81, (R)-3-(2-ethoxypyrimidin-5-yl)-3-(3-(3-(5,6,7,8-tetrahydro-1,8-naphthyridin-2-yl)propyl)-1H-pyrazol-1-yl)propanoic acid], 480 nM; in that of `COc1ccc(C(CC(=O)O)c2nc(CCCCc3ccc4c(n3)NCCC4)cs2)cc1F` (single isomer, unassigned) [Example 36, 3-(3-Fluoro-4-methoxyphenyl)-3-(4-(4-(5,6,7,8-tetrahydro-1,8-naphthyridin-2-yl)butyl)thiazol-2-yl)propanoic acid], 157 nM.
In the case of `O=C(O)C[C@@H](c1ccc(=O)n(CC2CC2)c1)n1ccc(CCCc2ccc3c(n2)NCCC3)n1` [Example 111, (S)-3-(1-(cyclopropylmethyl)-6-oxo-1,6-dihydropyridin-3-yl)-3-(3-(3-(5,6,7,8-tetrahydro-1,8-naphthyridin-2-yl)propyl)-1H-pyrazol-1-yl)propanoic acid], the IC50 came to 19 nM.
The figure for `COc1ccc(C(CC(=O)O)c2cc(CCCc3ccc4c(n3)NCCC4)c[nH]2)cc1F` (racemic) [Example 10, (±)-3-(3-Fluoro-4-methoxyphenyl)-3-(4-(3-(5,6,7,8-tetrahydro-1,8-naphthyridin-2-yl)propyl)-1H-pyrrol-2-yl)propanoic acid] is 136 nM; for `Cc1ncc(C(CC(=O)O)n2nccc2CCC[C@@H]2CCc3cccnc3N2)cn1` (mixture of isomers) [Example 91, 3-(2-methylpyrimidin-5-yl)-3-(5-(3-((R)-1,2,3,4-tetrahydro-1,8-naphthyridin-2-yl)propyl)-1H-pyrazol-1-yl)propanoic acid] it is 1400 nM.
In the case of `Cc1ncc(C(CC(=O)O)n2nccc2CCCc2ccc3c(n2)NCCCC3)cn1` (racemic) [Example 99, (±)-3-(2-methylpyrimidin-5-yl)-3-(5-(3-(6,7,8,9-tetrahydro-5/Z-pyrido[2,3-b]azepin-2-yl)propyl)-1H-pyrazol-1-yl)propanoic acid] it was 410 nM; in that of `CN(C)C(=O)c1ccc(C(CC(=O)O)c2nc(CCCCc3ccc4c(n3)NCCC4)cs2)cc1F` (single isomer, unassigned) [Example 131, 3-(4-(dimethylcarbamoyl)-3-fluorophenyl)-3-(4-(4-(5,6,7,8-tetrahydro-1,8-naphthyridin-2-yl)butyl)thiazol-2-yl)propanoic acid], 2.3 nM; in that of `O=C(O)CC(c1cccc(N2CCOCC2)c1)c1nc(CCCCc2ccc3c(n2)NCCC3)cs1` (single isomer, unassigned) [Example 126, 3-(3-morpholinophenyl)-3-(4-(4-(5,6,7,8-tetrahydro-1,8-naphthyridin-2-yl)butyl)thiazol-2-yl)propanoic acid], 6 nM.
In the case of `O=C(O)CC(c1cncc(N2CCOCC2)c1)n1nccc1CCCc1ccc2c(n1)NCCC2` (single isomer, unassigned) [Example 95, 3-(5-morpholinopyridin-3-yl)-3-(5-(3-(5,6,7,8-tetrahydro-1,8-naphthyridin-2-yl)propyl)-1H-pyrazol-1-yl)propanoic acid] it was 230 nM.
As to `CN(C)c1ccc(C(CC(=O)O)c2nc(CCCCc3ccc4c(n3)NCCC4)cs2)cn1` (single isomer, unassigned) [Example 121, 3-(6-(dimethylamino)pyridin-3-yl)-3-(4-(4-(5,6,7,8-tetrahydro-1,8-naphthyridin-2-yl)butyl)thiazol-2-yl)propanoic acid], the IC50 was 170 nM.
Turning to `O=C(O)CC(c1cc(Cl)cc(Cl)c1)n1nccc1CCCc1ccc2c(n1)NCCC2` (racemic) [Example 75, (±)-3-(3,5-dichlorophenyl)-3-{5-[3-(5,6,7,8-tetrahydro-1,8-naphthyridin-2-yl)propyl]-1H-pyrazol-1-yl}propanoic acid], the IC50 amounted to 28 nM.
For the molecule `COc1cncc(C(CC(=O)O)n2nccc2CCCc2ccc3c(n2)NCCCC3)c1` (racemic) [Example 108, (±)-3-(5-methoxypyridin-3-yl)-3-(5-(3-(6,7,8,9-tetrahydro-5H-pyrido[2,3-b]azepin-2-yl)propyl)-1H-pyrazol-1-yl)propanoic acid], the IC50 is 170 nM.
In the case of `CN(C)C(=O)c1ccc(C(CC(=O)O)c2nc(CCCc3ccc4c(n3)NCCC4)cs2)cc1` (single isomer, unassigned) [Example 137, 3-(4-(dimethylcarbamoyl)phenyl)-3-(4-(3-(5,6,7,8-tetrahydro-1,8-naphthyridin-2-yl)propyl)thiazol-2-yl)propanoic acid] it was 210 nM.
In the case of `O=C(O)CC(c1cnc2nccnc2c1)n1ccc(CCCc2ccc3c(n2)NCCC3)n1` (racemic) [Example 33, (±)-3-(Pyrido[2,3-b]pyrazin-7-yl)-3-(3-(3-(5,6,7,8-tetrahydro-1,8-naphthyridin-2-yl)propyl)-1H-pyrazol-1-yl)propanoic acid] it was 2800 nM.
In the case of `O=C(O)C[C@@H](c1cnc2c(c1)OCCO2)n1ccc(CCCc2ccc3c(n2)NCCC3)n1` [Example 51, (S)-3-(2,3-Dihydro-[1,4]dioxino[2,3-b]pyridin-7-yl)-3-(3-(3-(5,6,7,8-tetrahydro-1,8-naphthyridin-2-yl)propyl)-1H-pyrazol-1-yl)propanoic acid] it was 4.9 nM; in that of `Cc1cc(C)c(S(=O)(=O)NC(Cc2cnn(CCCc3ccc4c(n3)NCCC4)c2)C(=O)O)c(C)c1` (racemic) [Example 25, (±)-3-(1-(3-(5,6,7,8-Tetrahydro-1,8-naphthyridin-2-yl)propyl)-1H-pyrazol-4-yl)-2-((2,4,6-trimethylphenyl)sulfonamido)propanoic acid], 395 nM.
